Source: patent US20130165641A1, “6,11-BRIDGED BIARYL MACROLIDES” (Enanta Pharmaceuticals, Inc., priority 2007, published 2013)
Values after ≈ are worked out from the molar mass of the structure shown.

Tested on: MRSA
Experiment: MIC by micro-dilution method, MRSA isolates
Format: cell-based, Staphylococcus aureus
Conditions: compounds of Formula XVI; for MIC MRSA 7662: MRSA isolate 7662; for MIC MRSA 33591: MRSA isolate 33591
Experimental: Susceptibility tests can be used to quantitatively measure the in vitro activity of an antimicrobial agent against a given bacterial isolate. Compounds are tested for in vitro antibacterial activity by a micro-dilution method. Minimal Inhibitory Concentration (MIC) is determined in 96 well microtiter plates utilizing the appropriate broth medium for the observed bacterial isolates. […] The diluted compounds (2 μl/well) are then transferred into sterile, uninoculated medium (0.2 mL) by use of a 96 fixed tip-pipetting station. The inoculum for each bacterial strain is standardized to approximately 5×10^5 CFU/mL by optical comparison to a 0.5 McFarland turbidity standard. The plates are inoculated with 10 μl/well of adjusted bacterial inoculum. The 96 well plates are covered and incubated at 35+/−2° C. for 24 hours in ambient air environment. Following incubation, plate wells are visually examined by Optical Density measurement for the presence of growth (turbidity). The lowest concentration of an antimicrobial agent at which no visible growth occurs is defined as the MIC.
All in vitro testing follows the guidelines described in the Approved Standards M7-A7 protocol, published by the Clinical Laboratory Standards Institute (CLSI).

Structure (SMILES) | MIC MRSA 7662 | MIC MRSA 33591
CC[C@H]1OC(=O)[C@@](C)(F)C(=O)[C@H](C)[C@@H](O[C@@H]2O[C@H](C)C[C@H](N(C)C)[C@H]2O)[C@@]2(C)C[C@@H](C)C(=NC(C)=O)[C@H](C)[C@@H](OC/C(=N\OCc3ccc(-c4nccc(N)n4)cc3)CO2)[C@]1(C)O [Example 105] | 8 µg/mL (≈ 9.04 µM) | 8 µg/mL (≈ 9.04 µM)
CC[C@H]1OC(=O)[C@@](C)(F)C(=O)[C@H](C)[C@@H](O[C@@H]2O[C@H](C)C[C@H](N(C)C)[C@H]2O)[C@@]2(C)C[C@@H](C)C(=NC(C)=O)[C@H](C)[C@@H](OC/C(=N\OCc3ccc(-c4nsc(N)n4)cn3)CO2)[C@]1(C)O [Example 107] | 8 µg/mL (≈ 8.97 µM) | 16 µg/mL (≈ 17.9 µM)
CC[C@H]1OC(=O)[C@H](C)C(=O)[C@H](C)[C@@H](O[C@@H]2O[C@H](C)C[C@H](N(C)C)[C@H]2O)[C@@]2(C)C[C@@H](C)C(=NC(C)=O)[C@H](C)[C@@H](OC/C(=N\OCc3ccc(-c4nc(N)cs4)cn3)CO2)[C@]1(C)O [Example 108] | 8 µg/mL (≈ 9.16 µM) | 8 µg/mL (≈ 9.16 µM)
CC[C@H]1OC(=O)[C@@](C)(F)C(=O)[C@H](C)[C@@H](O[C@@H]2O[C@H](C)C[C@H](N(C)C)[C@H]2O)[C@@]2(C)C[C@@H](C)C(=NC(=O)C(C)C)[C@H](C)[C@@H](OC/C(=N\OCc3ccc(-c4nc(N)cs4)cn3)CO2)[C@]1(C)O [Example 109] | 2 µg/mL (≈ 2.18 µM) | 2 µg/mL (≈ 2.18 µM)
CCC(=O)N=C1[C@H](C)C[C@@]2(C)OC/C(=N/OCc3ncc(-c4cccc(N)n4)s3)CO[C@H]([C@H]1C)[C@](C)(O)[C@@H](CC)OC(=O)[C@@](C)(F)C(=O)[C@H](C)[C@H]2O[C@@H]1O[C@H](C)C[C@H](N(C)C)[C@H]1O [Example 110] | 2 µg/mL (≈ 2.21 µM) | 2 µg/mL (≈ 2.21 µM)
CC[C@H]1OC(=O)[C@@](C)(F)C(=O)[C@H](C)[C@@H](O[C@@H]2O[C@H](C)C[C@H](N(C)C)[C@H]2O)[C@@]2(C)C[C@@H](C)C(=NC(=O)C(C)C)[C@H](C)[C@@H](OC/C(=N\OCc3ncc(-c4cccc(N)n4)s3)CO2)[C@]1(C)O [Example 111] | 2 µg/mL (≈ 2.18 µM) | 2 µg/mL (≈ 2.18 µM)
CC[C@H]1OC(=O)[C@@](C)(F)C(=O)[C@H](C)[C@@H](O[C@@H]2O[C@H](C)C[C@H](N(C)C)[C@H]2O)[C@@]2(C)C[C@@H](C)C(=NC(=O)C3CC3)[C@H](C)[C@@H](OC/C(=N\OCc3ncc(-c4cccc(N)n4)s3)CO2)[C@]1(C)O [Example 112] | 4 µg/mL (≈ 4.36 µM) | 8 µg/mL (≈ 8.72 µM)
CCC(=O)N=C1[C@H](C)C[C@@]2(C)OC/C(=N/OCc3ccc(-c4nccc(N)n4)cn3)CO[C@H]([C@H]1C)[C@](C)(O)[C@@H](CC)OC(=O)[C@@](C)(F)C(=O)[C@H](C)[C@H]2O[C@@H]1O[C@H](C)C[C@H](N(C)C)[C@H]1O [Example 113] | 4 µg/mL (≈ 4.44 µM) | 8 µg/mL (≈ 8.89 µM)
CC[C@H]1OC(=O)[C@@](C)(F)C(=O)[C@H](C)[C@@H](O[C@@H]2O[C@H](C)C[C@H](N(C)C)[C@H]2O)[C@@]2(C)C[C@@H](C)C(=NC(=O)C(C)C)[C@H](C)[C@@H](OC/C(=N\OCc3ccc(-c4nccc(N)n4)cn3)CO2)[C@]1(C)O [Example 114] | 4 µg/mL (≈ 4.38 µM) | 8 µg/mL (≈ 8.75 µM)
CC[C@H]1OC(=O)[C@@](C)(F)C(=O)[C@H](C)[C@@H](O[C@@H]2O[C@H](C)C[C@H](N(C)C)[C@H]2O)[C@@]2(C)C[C@@H](C)C(=NC(=O)C(C)C)[C@H](C)[C@@H](OC/C(=N\OCc3ccc(-n4ccc(N)n4)cc3Cl)CO2)[C@]1(C)O [Example 116] | 4 µg/mL (≈ 4.28 µM) | 4 µg/mL (≈ 4.28 µM)
CCC(=O)N=C1[C@H](C)C[C@@]2(C)OC/C(=N/OCc3cnc(-c4cccc(N)n4)s3)CO[C@H]([C@H]1C)[C@](C)(O)[C@@H](CC)OC(=O)[C@@](C)(F)C(=O)[C@H](C)[C@H]2O[C@@H]1O[C@H](C)C[C@H](N(C)C)[C@H]1O [Example 117] | 2 µg/mL (≈ 2.21 µM) | 4 µg/mL (≈ 4.42 µM)
CC[C@H]1OC(=O)[C@@](C)(F)C(=O)[C@H](C)[C@@H](O[C@@H]2O[C@H](C)C[C@H](N(C)C)[C@H]2O)[C@@]2(C)C[C@@H](C)C(=NC(=O)C(C)C)[C@H](C)[C@@H](OC/C(=N\OCc3coc(-c4cccc(N)n4)n3)CO2)[C@]1(C)O [Example 118] | 4 µg/mL (≈ 4.43 µM) | 8 µg/mL (≈ 8.86 µM)
CCC(=O)N=C1[C@H](C)C[C@@]2(C)OC/C(=N/OCc3ccc(-c4nc(N)cs4)cn3)CO[C@H]([C@H]1C)[C@](C)(O)[C@@H](CC)OC(=O)[C@H](C)C(=O)[C@H](C)[C@H]2O[C@@H]1O[C@H](C)C[C@H](N(C)C)[C@H]1O [Example 119] | 4 µg/mL (≈ 4.51 µM) | 8 µg/mL (≈ 9.02 µM)
CCC(=O)N=C1[C@H](C)C[C@@]2(C)OC/C(=N/OCc3ccc(-c4nc(N)cs4)cc3)CO[C@H]([C@H]1C)[C@](C)(O)[C@@H](CC)OC(=O)[C@@](C)(F)C(=O)[C@H](C)[C@H]2O[C@@H]1O[C@H](C)C[C@H](N(C)C)[C@H]1O [Example 120] | 4 µg/mL (≈ 4.42 µM) | 4 µg/mL (≈ 4.42 µM)
CCC(=O)N=C1[C@H](C)C[C@@]2(C)OC/C(=N/OCc3ccc(-c4nc(N)cs4)cc3)CO[C@H]([C@H]1C)[C@](C)(O)[C@@H](CC)OC(=O)[C@H](C)C(=O)[C@H](C)[C@H]2O[C@@H]1O[C@H](C)C[C@H](N(C)C)[C@H]1O [Example 121] | 8 µg/mL (≈ 9.03 µM) | 8 µg/mL (≈ 9.03 µM)
CCC(=O)N=C1[C@H](C)C[C@@]2(C)OC/C(=N/OCc3ccc(-c4csc(N)n4)cc3)CO[C@H]([C@H]1C)[C@](C)(O)[C@@H](CC)OC(=O)[C@@](C)(F)C(=O)[C@H](C)[C@H]2O[C@@H]1O[C@H](C)C[C@H](N(C)C)[C@H]1O [Example 122] | 4.00 µg/mL (≈ 4.42 µM) | 4.00 µg/mL (≈ 4.42 µM)
CCC(=O)N=C1[C@H](C)C[C@@]2(C)OC/C(=N/OCc3ccc(-c4nsc(N)n4)cn3)CO[C@H]([C@H]1C)[C@](C)(O)[C@@H](CC)OC(=O)[C@@](C)(F)C(=O)[C@H](C)[C@H]2O[C@@H]1O[C@H](C)C[C@H](N(C)C)[C@H]1O [Example 123] | 4 µg/mL (≈ 4.41 µM) | 4 µg/mL (≈ 4.41 µM)
CC[C@H]1OC(=O)[C@@](C)(F)C(=O)[C@H](C)[C@@H](O[C@@H]2O[C@H](C)C[C@H](N(C)C)[C@H]2O)[C@@]2(C)C[C@@H](C)C(=NC(=O)OC)[C@H](C)[C@@H](OC/C(=N\OCc3ccc(-n4ccc(N)n4)cn3)CO2)[C@]1(C)O [Example 124] | 4.00 µg/mL (≈ 4.49 µM) | 8.00 µg/mL (≈ 8.99 µM)
CCC(=O)N=C1[C@H](C)C[C@@]2(C)OC/C(=N/OCc3ccc(-c4csc(N)n4)cn3)CO[C@H]([C@H]1C)[C@](C)(O)[C@@H](CC)OC(=O)[C@@](C)(F)C(=O)[C@H](C)[C@H]2O[C@@H]1O[C@H](C)C[C@H](N(C)C)[C@H]1O [Example 125] | 4 µg/mL (≈ 4.42 µM) | 8 µg/mL (≈ 8.84 µM)
CC[C@H]1OC(=O)[C@@](C)(F)C(=O)[C@H](C)[C@@H](O[C@@H]2O[C@H](C)C[C@H](N(C)C)[C@H]2O)[C@@]2(C)C[C@@H](C)C(=NC(C)=O)[C@H](C)[C@@H](OC/C(=N\OCc3coc(-c4cccc(N)n4)n3)CO2)[C@]1(C)O [Example 126] | 4 µg/mL (≈ 4.57 µM) | 8 µg/mL (≈ 9.14 µM)
CCC(=O)N=C1[C@H](C)C[C@@]2(C)OC/C(=N/OCc3ccc(-c4nsc(N)n4)cc3)CO[C@H]([C@H]1C)[C@](C)(O)[C@@H](CC)OC(=O)[C@@](C)(F)C(=O)[C@H](C)[C@H]2O[C@@H]1O[C@H](C)C[C@H](N(C)C)[C@H]1O [Example 127] | 2.00 µg/mL (≈ 2.21 µM) | 4.00 µg/mL (≈ 4.42 µM)
CCC(=O)N=C1[C@H](C)C[C@@]2(C)OC/C(=N/OCc3ccc(-c4nc(N)cs4)nc3)CO[C@H]([C@H]1C)[C@](C)(O)[C@@H](CC)OC(=O)[C@@](C)(F)C(=O)[C@H](C)[C@H]2O[C@@H]1O[C@H](C)C[C@H](N(C)C)[C@H]1O [Example 128] | 4.00 µg/mL (≈ 4.42 µM) | 8.00 µg/mL (≈ 8.84 µM)
CCC(=O)N=C1[C@H](C)C[C@@]2(C)OC/C(=N/OCc3ccc(-c4nsc(N)n4)nc3)CO[C@H]([C@H]1C)[C@](C)(O)[C@@H](CC)OC(=O)[C@@](C)(F)C(=O)[C@H](C)[C@H]2O[C@@H]1O[C@H](C)C[C@H](N(C)C)[C@H]1O [Example 129] | 4.00 µg/mL (≈ 4.41 µM) | 8.00 µg/mL (≈ 8.83 µM)
CC[C@H]1OC(=O)[C@@](C)(F)C(=O)[C@H](C)[C@@H](O[C@@H]2O[C@H](C)C[C@H](N(C)C)[C@H]2O)[C@@]2(C)C[C@@H](C)C(=NC(=O)C(C)C)[C@H](C)[C@@H](OC/C(=N\OCc3ccc(-c4nsc(N)n4)cn3)CO2)[C@]1(C)O [Example 130] | 2.00 µg/mL (≈ 2.17 µM) | 4.00 µg/mL (≈ 4.35 µM)
CCC(=O)N=C1[C@H](C)C[C@@]2(C)OC/C(=N/OCc3cnc(-c4nccc(N)n4)s3)CO[C@H]([C@H]1C)[C@](C)(O)[C@@H](CC)OC(=O)[C@@](C)(F)C(=O)[C@H](C)[C@H]2O[C@@H]1O[C@H](C)C[C@H](N(C)C)[C@H]1O [Example 131] | 4.00 µg/mL (≈ 4.41 µM) | 8.00 µg/mL (≈ 8.83 µM)
